# Laboratory results published in patent US8293979B2, “Weed controller metabolism proteins, genes, thereof and use of the same” (Sumitomo Chemical Company, Limited, priority 2001, dated 2012).
# Assays:
# Blackgrass = assay: Herbicidal activity test, soil surface treatment; format: in vivo, Alopercurus myosuroides; parameters: key: 0: situations in which the condition of sprouting or vegetation at the time of examination of the plant utilized for the test was compared with and showed totally or substantially no difference with that of the untreated application; 10: situations in which the plant completely withered or the sprouting or vegetation was completely suppressed; conditions: 500 g/ha, sprayed onto the surface of the soil after seeding, investigated after 19 days in a greenhouse
# Procedure: Soil was packed into a round plastic pot having a diameter of 10 cm and depth of 10 cm. Barnyardgrass, Blackgrass, Ivyleaf morningglory were seeded. Five (5) parts of the test compound, 6 parts of sorpol3005X (Toho Chemical Company) and 89 parts of xylene were well mixed to produce an emulsion. A certain amount thereof was diluted with water containing 0.1% (v/v) of a sticking agent at a proportion of 1000 L for 1 hectare and was spread uniformly with a spray-gun onto the surface of the soil. After cultivating the plants for 19 days in a greenhouse, the herbicidal activity was investigated.
# In the above Tables 3 and 4, the strength of the herbicidal activity is shown stepwise as 0, 1, 2, 3, 4, 5, 6, 7, 8, 9, and 10.
# [1] = test system: present invention protein (A20); assay: Detection of the ability to convert compound (II) to compound (III), E. coli pKSN1525F extract; format: in vitro ADME, Streptomyces lanatus IFO 12787T; conditions: 3 ppm of compound (II) labeled with 14C, components A, B, 10 minutes at 30° C.
# Procedure: (§1) Reaction solutions of 30 μl were prepared and maintained for 10 minutes at 30° C. The reaction solutions consisted of a 0.1M potassium phosphate buffer (pH7.0) containing 3 ppm of compound (II) labeled with ^14C, 2 mM of β-NADPH (hereinafter, referred to as “component A”) (Oriental Yeast Company), 2 mg/ml of a ferredoxin derived from spinach (hereinafter referred to as “component B”) (Sigma Company), 0.1 U/ml of ferredoxin reductase (hereinafter, referred to as “component C”) (Sigma Company) and 23 μl of the supernatant fraction recovered in Example 32(2). Similarly to Example 4(3), the reaction solutions after the maintenance were extracted with ethyl acetate and the extracted layers were TLC analyzed. […] A spot corresponding to compound (III) was detected from the reaction solution containing E. coli pKSN849AF extract. In contrast, such a spot was not detected from the reaction solution containing E. coli pKSN2 extract.
# (§2) Similarly to Example 32(3), reaction solutions of 30 μl were prepared and maintained for 10 minutes at 30° C. […] The reaction solutions after the maintenance were extracted with ethyl acetate and the extracted layers were TLC analyzed. […] A spot corresponding to compound (III) was detected from the reaction solution containing E. coli pKSN1525F extract. In contrast, such a spot was not detected from the reaction solution containing E. coli pKSN2 extract.
# [2] = test system: present invention protein (A24); assay: Detection of the ability to convert compound (II) to compound (III), E. coli pKSN1589BF extract; format: in vitro ADME, Streptomyces rutgersensis IFO 15875T; conditions: 3 ppm of compound (II) labeled with 14C, components A, B, 10 minutes at 30° C.
# Procedure: as §1
# as §2, with “pKSN1589BF” for “pKSN1525F”
# [3] = test system: present invention protein (A16); assay: Metabolism of compounds by the present invention protein (A16), reaction solution, HPLC; format: in vitro ADME, Streptomyces ornatus IFO 13069t; conditions: 12.5 ppm of compound, components A, B, C, 20 μl supernatant fraction of Example 49(2), 30° C. for 10 minutes
# Procedure: There was prepared 100 μl of a reaction solution of 50 mM potassium phosphate buffer (pH7.0) containing 12.5 ppm of compound (XII), 3 mM of β-NADPH (hereinafter, referred to as “component A”) (Oriental Yeast Company), 1 mg/ml of a ferredoxin derived from spinach (hereinafter referred to as “component B”) (Sigma Company), 0.15 U/ml of ferredoxin reductase (hereinafter, referred to as “component C”) (Sigma Company) and 20 μl of the supernatant fraction recovered in Example 49(2). The reaction solution was maintained at 30° C. for 10 minutes. […] Forty microliters (40 μl) of the liquid filtrate (hereinafter, the liquid filtrate derived from the reaction solution containing component A, component B, component C and 20 μl of supernatant fraction recovered in Example 49(2) is referred to as “(XII) metabolism solution (A16);” further, the liquid filtrate derived from the reaction solution containing no component A, no component B, no component C and no supernatant fraction recovered in Example 49(2) is referred to as “(XII) control solution (A16)”) were analyzed on a HPLC under the above analysis condition 1. Compared to the concentration of compound (XII) detected from (XII) control solution (A16), the concentration of compound (XII) detected from (XII) metabolism solution (A16) was lower. […]
# [4] = test system: present invention protein (A19); assay: Metabolism of compounds by the present invention protein (A19), reaction solution, HPLC; format: in vitro ADME, Streptomyces griseus IFO 13849T; conditions: 12.5 ppm of compound, components A, B, C, 20 μl supernatant fraction of Example 55(2), 30° C. for 10 minutes
Structure (SMILES),Herbicidal Activity Blackgrass (Blackgrass),spot corresponding to compound (III) labeled with 14C (TLC) [1],spot corresponding to compound (III) labeled with 14C (TLC) [2],concentration of the compound detected from metabolism solution (A16) compared to control solution (A16) [3],concentration of the compound detected from metabolism solution (A19) compared to control solution (A19) [4]
C[C@@H](Oc1cc(-n2c(=O)cc(C(F)(F)F)n(C)c2=O)c(F)cc1Cl)C(=O)O [compound (II)],10,detected,detected,–,–
Cn1c(C(F)(F)F)cc(=O)n(-c2cc(Oc3cccnc3OCC(=O)O)c(Cl)cc2F)c1=O [compound (XII)],–,–,–,lower,lower
Cn1c(C(F)(F)F)cc(=O)n(-c2cc(Oc3ccccc3OCC(=O)O)c(Cl)cc2F)c1=O [compound (XIII)],–,–,–,–,lower
